Data: patent US11214803B2, “Modulators of YAP1 expression” (Ionis Pharmaceuticals, Inc., priority 2019, dated 2022)
Strand notation (5' to 3'): a small letter for the sugar, then the base; units joined by * are phosphorothioate-linked, units joined directly phosphodiester-linked; [ ] holds rarer units or linkages, { } end groups; capitals alone tell only the bases. k = constrained ethyl (cEt); [5mC] = 5-methylcytosine; d = 2'-deoxy (DNA)

system: Yap1 mRNA; assay: Antisense inhibition of human Yap1 in A-431 cells by cEt gapmers, single dose (Example 3, RTS36584); format: cell-based; conditions: Table 8; A-431 cells, 5,000 cells per well, free uptake, 2,000 nM, approximately 48 hours; RTS36584; normalized to RIBOGREEN; Yap1 mRNA relative to untreated control cells
Protocol: Modified oligonucleotides were designed to target a Yap1 nucleic acid and were tested for their effect on Yap1 mRNA level in vitro. The modified oligonucleotides were tested in a series of experiments that had similar culture conditions. Cultured A-431 cells at a density of 5,000 cells per well were treated using free uptake with 2,000 nM of modified oligonucleotide. After a treatment period of approximately 48 hours, RNA was isolated from the cells and Yap1 mRNA levels were measured by quantitative real-time RTPCR. Human primer probe set RTS36584 (forward sequence […], designated herein as SEQ ID NO.: 14; reverse sequence […], designated herein as SEQ ID NO.: 15; probe sequence […], designated herein as SEQ ID NO.: 16) was used to measure mRNA levels. Yap1 mRNA levels were normalized to total RNA content, as measured by RIBOGREEN®. Results are presented in the tables below as percent control of the amount of Yap1 mRNA relative to untreated control cells (% UTC). The modified oligonucleotides with percent control values marked with an asterisk (*) target the amplicon region of the primer probe set. Additional assays may be used to measure the potency and efficacy of the modified oligonucleotides targeting the amplicon region.
The newly designed modified oligonucleotides in the Tables below were designed as 3-10-3 cEt gapmers. The gapmers are 16 nucleosides in length, wherein the central gap segment comprises of ten 2′-deoxynucleosides and is flanked by wing segments on the 5′ direction and the 3′ direction comprising three nucleosides each. Each nucleoside in the 5′ wing segment and each nucleoside in the 3′ wing segment has a cEt sugar modification. The internucleoside linkages throughout each gapmer are phosphorothioate (P═S) linkages. All cytosine residues throughout each gapmer are 5-methylcytosines.
“Start site” indicates the 5′-most nucleoside to which the gapmer is targeted in the human gene sequence. “Stop site” indicates the 3′-most nucleoside to which the gapmer is targeted human gene sequence. […] Activity of the modified oligonucleotide may be defined in a different experiment.

Substance	YAP1 (% UTC)
958358 (antisense kG*kG*k[5mC]*dG*dG*d[5mC]*dT*dT*dG*dA*dA*dG*dA*kA*kG*kG) [Compound 958358]	34 % UTC
958378 (antisense k[5mC]*kA*kT*d[5mC]*dA*dG*dT*dA*d[5mC]*dT*dG*dG*d[5mC]*k[5mC]*kT*kA) [Compound 958378]	25 % UTC
958390 (antisense kG*k[5mC]*kG*dA*dA*dG*dG*dT*dG*d[5mC]*dG*dG*dA*kG*k[5mC]*kG) [Compound 958390]	145 % UTC

same assay, conditions: Table 9; A-431 cells, 5,000 cells per well, free uptake, 2,000 nM, approximately 48 hours; RTS36584; normalized to RIBOGREEN; Yap1 mRNA relative to untreated control cells

Substance	YAP1 (% UTC)
958656 (kA*k[5mC]*kG*d[5mC]*dA*dA*dT*d[5mC]*dT*dG*dT*dG*dA*kT*k[5mC]*k[5mC]; antisense) [Compound 958656]	48 % UTC

same assay, conditions: Table 10; A-431 cells, 5,000 cells per well, free uptake, 2,000 nM oligonucleotide, approx. 48 hours; primer probe set RTS36584; Yap1 mRNA normalized to RIBOGREEN, percent of untreated control

Substance	YAP1 (% UTC)
958797 (antisense kA*k[5mC]*kG*dA*dG*d[5mC]*dA*d[5mC]*dA*dG*d[5mC]*dA*d[5mC]*k[5mC]*k[5mC]*kT) [Compound 958797]	13 % UTC
958552 (kT*kA*kT*dT*dA*d[5mC]*dT*d[5mC]*d[5mC]*dT*dG*dT*dA*kG*kA*k[5mC]; antisense) [Compound 958552]	16 % UTC
958547 (k[5mC]*kA*k[5mC]*dA*dT*dA*d[5mC]*dT*d[5mC]*dT*dA*dG*dT*kT*kA*k[5mC]; antisense) [Compound 958547]	4 % UTC

same assay, conditions: Table 11; A-431 cells, 5,000 cells per well, free uptake, 2,000 nM oligonucleotide, approx. 48 hours; primer probe set RTS36584; Yap1 mRNA normalized to RIBOGREEN, percent of untreated control

Substance	YAP1 (% UTC)
958718 (antisense kG*kA*kA*d[5mC]*dA*d[5mC]*dT*dA*dT*dA*dG*d[5mC]*dT*kT*kG*kG) [Compound 958718]	4 % UTC
958538 (kA*kT*k[5mC]*d[5mC]*dA*dG*dG*dG*dT*d[5mC]*dA*dA*dT*kT*kT*kT; antisense) [Compound 958538]	10 % UTC
958483 (antisense kG*kA*kG*dG*dA*dT*dT*dA*dA*dA*dG*dT*dA*kT*k[5mC]*kT) [Compound 958483]	17 % UTC
958663 (k[5mC]*kT*kA*dT*dT*dA*dG*dG*dG*dA*d[5mC]*dT*dG*kA*kA*k[5mC]; antisense) [Compound 958663]	32 % UTC
958588 (kG*kT*kG*dT*dA*d[5mC]*dT*dT*dA*dG*dG*dT*dG*kA*k[5mC]*kT; antisense) [Compound 958588]	10 % UTC
958493 (kA*kA*kA*d[5mC]*dA*dG*dT*d[5mC]*dT*dT*d[5mC]*dA*dG*k[5mC]*k[5mC]*kT; antisense) [Compound 958493]	16 % UTC
958543 (kA*k[5mC]*k[5mC]*dT*dT*dA*dT*dA*dG*dT*dA*dT*dT*k[5mC]*kT*kA; antisense) [Compound 958543]	4 % UTC
958568 (kT*kA*kT*dG*dA*dG*dT*dG*dA*dT*d[5mC]*dA*dA*k[5mC]*k[5mC]*kT; antisense) [Compound 958568]	5 % UTC
958528 (kA*kG*kT*d[5mC]*dT*dT*dG*dT*dA*dA*dG*dT*dA*kA*kG*kA; antisense) [Compound 958528]	18 % UTC

same assay, conditions: Table 12; A-431 cells, 5,000 cells per well, free uptake, 2,000 nM modified oligonucleotide, approx. 48 hours; RTS36584; normalized to RIBOGREEN; Yap1 mRNA relative to untreated control cells

Substance	YAP1 (% UTC)
958704 (antisense k[5mC]*k[5mC]*k[5mC]*dT*dA*d[5mC]*dA*d[5mC]*dT*d[5mC]*dG*dA*dG*kG*kA*kT) [Compound 958704]	122 % UTC
958719 (antisense kG*kT*kA*d[5mC]*dA*dT*dA*dA*dT*dG*dG*dG*d[5mC]*kT*kA*kA) [Compound 958719]	49 % UTC
958594 (k[5mC]*kT*k[5mC]*dT*dT*dA*dG*dG*dT*d[5mC]*dT*d[5mC]*d[5mC]*kT*kT*k[5mC]; antisense) [Compound 958594]	8 % UTC
958649 (kT*kG*k[5mC]*d[5mC]*dA*d[5mC]*dT*dG*dG*dT*dG*dA*dA*kT*kA*k[5mC]; antisense) [Compound 958649]	36 % UTC
958709 (antisense kT*k[5mC]*kA*dA*dT*d[5mC]*dT*dA*dT*dG*dA*dG*dA*k[5mC]*k[5mC]*k[5mC]) [Compound 958709]	57 % UTC

same assay, conditions: Table 13; A-431 cells, 5,000 cells per well, free uptake, 2,000 nM modified oligonucleotide, approx. 48 hours; RTS36584; normalized to RIBOGREEN; Yap1 mRNA relative to untreated control cells

Substance	YAP1 (% UTC)
958495 (kG*kG*kT*d[5mC]*dA*dT*dT*dA*dT*dG*dT*dG*dA*k[5mC]*kT*kA; antisense) [Compound 958495]	56 % UTC
958785 (antisense kG*k[5mC]*kA*dA*dT*d[5mC]*d[5mC]*dA*d[5mC]*dA*dA*dT*dT*k[5mC]*k[5mC]*kA) [Compound 958785]	2 % UTC
958730 (antisense k[5mC]*kT*k[5mC]*dT*dG*dT*d[5mC]*dA*dG*dT*dT*dA*dT*k[5mC]*k[5mC]*kT) [Compound 958730]	4 % UTC

same assay, conditions: Table 26; Yap1 mRNA by 3-10-3 cEt gapmers targeting SEQ ID NO.: 1, and 2; percent of untreated control

Substance	YAP1 (% UTC)
1074284 (antisense k[5mC]*kA*kA*dA*dA*d[5mC]*dG*dA*dG*dG*dG*dT*d[5mC]*kA*kA*kG) [compound 1074284]	21 % UTC
1074348 (antisense kG*kT*kA*d[5mC]*dT*d[5mC]*dT*d[5mC]*dA*dT*d[5mC]*dT*d[5mC]*kG*kA*kG) [compound 1074348]	100 % UTC
1074380 (kG*kT*k[5mC]*dT*dG*dG*dG*dA*dA*dA*d[5mC]*dG*dG*kT*kT*k[5mC]; antisense) [compound 1074380]	11 % UTC
1074156 (kA*kG*kG*dG*d[5mC]*dT*dA*d[5mC]*dG*d[5mC]*d[5mC]*d[5mC]*dG*kG*kA*k[5mC]; antisense) [compound 1074156]	96 % UTC
1075372 (antisense kA*kT*kA*dT*dA*dT*dA*dG*dA*d[5mC]*dT*dT*dG*kA*kG*kA) [compound 1075372]	27 % UTC
1076012 (kA*kA*kT*dA*dT*dA*dA*dA*d[5mC]*dA*dA*dT*dA*kG*k[5mC]*kG; antisense) [compound 1076012]	34 % UTC

same assay, conditions: Table 27; Yap1 mRNA by 3-10-3 cEt gapmers targeting SEQ ID NO.: 1, and 2; percent of untreated control

Substance	YAP1 (% UTC)
1074829 (kG*kG*kA*dT*dA*dA*dA*dA*dT*d[5mC]*d[5mC]*dA*d[5mC]*k[5mC]*kT*kG; antisense) [compound 1074829]	92 % UTC
1076557 (kA*kA*k[5mC]*dA*dA*dA*dT*dA*d[5mC]*d[5mC]*dA*dG*dG*kT*kT*k[5mC]; antisense) [compound 1076557]	111 % UTC

same assay, conditions: Table 29; Yap1 mRNA as percent of untreated control; 3-10-3 cEt gapmers targeting SEQ ID NO.: 1, and 2

Substance	YAP1 (% UTC)
1074543 (k[5mC]*k[5mC]*kT*dA*dG*dG*d[5mC]*dA*d[5mC]*dT*dA*dT*d[5mC]*k[5mC]*kA*k[5mC]; antisense) [compound 1074543]	57 % UTC
1074415 (kG*k[5mC]*k[5mC]*dA*dA*d[5mC]*dT*dG*dT*dG*dA*dA*dA*kG*kA*kG; antisense) [compound 1074415]	10 % UTC
1076207 (kA*kG*kT*d[5mC]*dA*dA*dT*dA*dA*dA*d[5mC]*dT*dT*kA*k[5mC]*k[5mC]; antisense) [compound 1076207]	58 % UTC
1076175 (k[5mC]*kA*kA*dT*dA*dG*dG*dT*dA*dA*d[5mC]*dA*dG*kG*kT*kA; antisense) [compound 1076175]	15 % UTC

same assay, conditions: Table 34; Yap1 mRNA as percent of untreated control; 3-10-3 cEt gapmers targeting SEQ ID NO: 1 and 2; single dose

Substance	YAP1 (% UTC)
1074612 (DNA kA*kT*kA*dG*d[5mC]*dT*dT*dA*dT*dA*dT*dT*dG*kA*kA*kG; further chemistry not given here) [compound 1074612]	12 % UTC
1075316 (antisense kG*kT*kA*dT*dA*dT*dA*dG*dA*dT*dA*d[5mC]*d[5mC]*k[5mC]*kA*k[5mC]) [compound 1075316]	25 % UTC
1075508 (kG*kA*kA*dA*dA*dA*dG*dG*dT*dT*dT*dA*dG*kG*kG*kT; antisense) [compound 1075508]	84 % UTC

same assay, conditions: Table 35; Yap1 mRNA as percent of untreated control; 3-10-3 cEt gapmers targeting SEQ ID NO: 1 and 2; single dose

Substance	YAP1 (% UTC)
1074965 (antisense kG*kT*kG*dT*dT*dT*dA*dG*dG*d[5mC]*dA*dA*dG*k[5mC]*kA*kG) [compound 1074965]	20 % UTC
1075349 (antisense kA*kT*kT*dA*dA*dA*dG*d[5mC]*dT*d[5mC]*dA*dT*dT*kG*kA*kT) [compound 1075349]	81 % UTC
